The experiment concerns breast cancer patients. The experiment is described as follows: Patient response in breast cancer tissue microarray cohort: chemotherapy together with HERCEPTIN®, response from case histories at last follow-up. Type of experiment: in vivo, human. As to conditions: treatment following surgery (followed by Herceptin ®). How it is done:
Immunohistochemistry for detecting and measuring predictive biomarker expression, activation or both was performed as follows. HER2/neu, EGFR, HER3, IGFR, TGF-α, Heregulin (NDF), p-ERK, p-AKT, and p-S6 ribosomal protein or phosphorylation levels were quantified using alkaline phosphatase or peroxidase techniques and microscope-based image analysis of immunohistochemically stained slides (as described in Bacus et al., 1997, Analyt. Quant. Cytol. Histol. 19: 316-328). Quantification was by means of a CAS 200 image analyzer, as previously described (Bacus & Ruby, 1993, Pathol Annu, 28: 179-204). For the purpose of the analysis, tumors were classified as negative or positive for each antibody based upon the level of staining. Statistical analysis was performed using Systat to quantify frequencies and calculate Pearson Chi-squared tests of significance for interactions between variables. In all cases, the p value refers to the significance of the deviation of the distribution of samples from what would be expected based upon the overall population distribution. Comparisons were performed only on samples for which all relevant data were available. […] All patients had received post-surgical radiotherapy. The tissue samples in the array were taken before treatment. HER2/neu expression had been determined by using the […] system (DAKO, Carpinteria, Calif.) on the original biopsies for all patients. Patient response was based upon the case histories at last follow-up as decided by an independent pathologist provided by Clinomics.

For `CC(=O)O[C@H]1C(=O)[C@@]2(C)[C@H]([C@H](OC(=O)c3ccccc3)[C@]3(O)C[C@H](OC(=O)[C@H](O)[C@@H](NC(=O)c4ccccc4)c4ccccc4)C(C)=C1C3(C)C)[C@]1(OC(C)=O)CO[C@@H]1C[C@@H]2O` [Paclitaxel], the “disease-free or stable disease” value was 100% and the relapse is 0%.

Turning to `COc1cccc2c1C(=O)c1c(O)c3c(c(O)c1C2=O)C[C@@](O)(C(=O)CO)C[C@@H]3O[C@H]1C[C@H](N)[C@H](O)[C@H](C)O1` [Doxorubicin], the “disease-free or stable disease” value was 2% and the relapse is reported as 98%.

The values are drawn from patent publication US9239331B2, “Method for predicting the response to HER2-directed therapy” (Ventana Medical Systems, Inc., priority 2002, dated 2016).
